Data from patent US7932262B2 (Novartis AG, priority 2006, dated 2011).

Assays:
PDK1 kinase = molecular target: T1, PDK1 kinase (Homo sapiens, UniProt O15530); experiment: PDK1 Kinase Alpha Screen Assay; type: biochemical; conditions: read-out: PDK1 IC50
T1 sequence (O15530 1-556): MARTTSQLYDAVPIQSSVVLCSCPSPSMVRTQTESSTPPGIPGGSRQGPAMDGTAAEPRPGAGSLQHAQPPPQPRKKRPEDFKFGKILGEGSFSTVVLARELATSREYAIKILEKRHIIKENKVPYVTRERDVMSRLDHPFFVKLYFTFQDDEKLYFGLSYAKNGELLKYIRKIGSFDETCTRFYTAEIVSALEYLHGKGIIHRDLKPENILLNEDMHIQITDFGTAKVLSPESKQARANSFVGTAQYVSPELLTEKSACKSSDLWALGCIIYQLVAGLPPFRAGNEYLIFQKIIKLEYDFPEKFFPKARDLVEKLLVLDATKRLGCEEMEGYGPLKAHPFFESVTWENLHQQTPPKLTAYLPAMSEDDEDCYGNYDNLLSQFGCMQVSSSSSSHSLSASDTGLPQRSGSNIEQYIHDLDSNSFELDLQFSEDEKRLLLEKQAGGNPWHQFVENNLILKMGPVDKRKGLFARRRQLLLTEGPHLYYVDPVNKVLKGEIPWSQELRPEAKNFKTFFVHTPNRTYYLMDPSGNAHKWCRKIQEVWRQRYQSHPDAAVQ
Method in brief: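 AlphaScreen readout: phospho-peptide captured by phospho-(Ser/Thr) PKA substrate antibody (0.3 mg/ml) on protein A acceptor beads, biotin peptide on streptavidin donor beads (25 μg/ml each), overnight at room temperature. Kinase step used 50 nM PDK1-4 peptide, 10 uM ATP, 3-18 hours.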

A2780 cells = experiment: Cell Proliferation Assay (Cell Titer Glo), A2780; type: cell-based; conditions: Homo sapiens, 72 h; A2780 cells, 3 days incubation; read-out: CPEC50 A2780
Method in brief: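 Following a 3-day compound exposure (37° C., 5% CO2) of A2780 or PC3MM cells plated at 1000 per well, viability was measured by Cell Titer Glo luminescence in fresh medium, read 10 min after reagent addition.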

[1] = tested on: pAkt308 (phosphorylation of Akt at T308) in PC-3 cells; experiment: pAkt T308 ECL Assay in PC-3 cells; type: cell-based; conditions: Homo sapiens, 6 h, six hours with compound, read-out: PAKT308 PC3 IC50
Procedure: VI. The pAkt^T308 ECL Assay Protocol
On Day 1, PC-3 cells were seeded at 15,000 cells/well in 100 μL/well ([…]) growth media into black-walled, clear bottom, poly-L-lysine coated plates. The cells were incubated overnight in a 37° C., 5% CO2 incubator.
On Day 2, a MSD ECL plate was blocked for two hours with 150 μL per well of 3% MSD blocker A.
Test compounds were diluted to 500× in DMSO and then were subjected to further serial dilution using a BioMek 2000 instrument. DMSO diluted compounds were then diluted into growth media and then added to the cell plates.
The cell plates incubated with compounds for six hours in a 37° C., 5% CO2 incubator after which the growth medium was removed and 55 μl of MSD lysis buffer was added to cell plates on ice. The plates were lysed on ice for five minutes followed by 15 minutes of vigorous shaking on a plate shaker at 4° C. The blocked MSD assay plates were washed twice with 1×MSD wash buffer followed by the addition of cell lysate as follows: 30 μl of cell lysate was added to the pAkt308 plates and 13 μl of lysate+12 μl lysis buffer was added to the tAkt plates. The plates were then sealed and shaken at 4° C. overnight.
On Day 3, the MSD plates were washed four times with 1×MSD wash buffer then, 25 μl/well of MSD SULFO-TAG antibodies diluted to 10 nM final concentration in 1% blocker. A buffer was added to the antibody diluent which was added to assay plates. The plates were then sealed and incubated at RT for 1.5 hour. The plates were then washed twice with 1×MSD wash buffer followed by the addition of 150 μl/well of 1.5×MSD read buffer. The plates were read immediately after the addition of read buffer using a Trilux instrument. […]

PC-3 cells = experiment: Cell Proliferation Assay (Cell Titer Glo), PC-3 cell line; type: cell-based; conditions: Homo sapiens, PC-3, 72 h, PC-3 cells, 3 days incubation; read-out: CP EC50 PC3
Method in brief: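 Cell Titer Glo luminescence, read after fresh medium replaced the dosing medium, gave viability of PC-3 cells plated at 1000 cells/well. Compounds, 1:3 serially diluted in DMSO at 500× and then in medium, were added after 3-5 h adhesion and incubated 3 days at 37° C.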

| SMILES | IC50 (PDK1 kinase) | EC50 (A2780 cells) | IC50 [1] | EC50 (PC-3 cells) |
| --- | --- | --- | --- | --- |
| O=S(=O)(c1cccc(Nc2ncc3cccc(OC4CCNCC4)c3n2)c1)N1CCOCC1 [Compound 5, [3-(Morpholine-4-sulfonyl)-phenyl]-[8-(piperidin-4-yloxy)-quinazolin-2-yl]-amine] | < 5 µM | < 5 µM | 5 to 10 µM |  |
| Nc1ccc(-c2ccc3cnc(Nc4ccc(S(N)(=O)=O)cc4)nc3c2OC2CCNCC2)cn1 [Compound 21, 4-[7-(6-Amino-pyridin-3-yl)-8-(piperidin-4-yloxy)-quinazolin-2-ylamino]-benzenesulfonamide] | < 5 µM | < 5 µM | 5 to 10 µM |  |
| CC(=O)Nc1ccc(Nc2ncc3cccc(OC4CCN(C(C)C)CC4)c3n2)cc1 [Compound 73, N-{4-[8-(1-Isopropyl-piperidin-4-yloxy)-quinazolin-2-ylamino]-phenyl}-acetamide] | < 5 µM |  | 5 to 10 µM | < 5 µM |
| Fc1ccc(Nc2ncc3ccc(OC4CCNCC4)cc3n2)cc1 [Compound 59, (4-Fluoro-phenyl)-[7-(piperidin-4-yloxy)-quinazolin-2-yl]-amine] | < 5 µM |  | < 5 µM | < 5 µM |
| CCN1CCC(Oc2cccc3cnc(Nc4ccc(S(N)(=O)=O)cc4)nc23)CC1 [Compound 46, 4-[8-(1-Ethyl-piperidin-4-yloxy)-quinazolin-2-ylamino]-benzenesulfonamide] | < 5 µM | < 5 µM | 5 to 10 µM |  |
| CC(=O)Nc1cccc(Nc2ncc3cccc(OC4CCN(C(C)C)CC4)c3n2)c1 [Compound 81] | < 5 µM |  | < 5 µM | < 5 µM |
| CC(C)N1CCC(Oc2cccc3cnc(Nc4ccc(N5CCOCC5)cc4)nc23)CC1 [Compound 72, [8-(1-Isopropyl-piperidin-4-yloxy)-quinazolin-2-yl]-(4-morpholin-4-yl-phenyl)-amine] | < 5 µM |  | < 5 µM | < 5 µM |
| NS(=O)(=O)c1ccc(Nc2ncc3ccc(-c4ccccn4)c(OC4CCNCC4)c3n2)cc1 [Compound 28, 4-[8-(Piperidin-4-yloxy)-7-pyridin-2-yl-quinazolin-2-ylamino]-benzenesulfonamide] | < 5 µM | < 5 µM | 5 to 10 µM |  |
| Cn1cc(-c2ccc3cnc(Nc4ccc(S(N)(=O)=O)cc4)nc3c2OC2CCNCC2)cn1 [Compound 25, 4-[7-(1-Methyl-1H-pyrazol-4-yl)-8-(piperidin-4-yloxy)-quinazolin-2-ylamino]-benzenesulfonamide] | < 5 µM | < 5 µM | 5 to 10 µM |  |
| NS(=O)(=O)c1ccc(Nc2ncc3ccc(-c4cn[nH]c4)c(OC4CCNCC4)c3n2)cc1 [Compound 24, 4-[8-(Piperidin-4-yloxy)-7-(1H-pyrazol-4-yl)-quinazolin-2-ylamino]-benzenesulfonamide] | < 5 µM | < 5 µM | 5 to 10 µM |  |
| COc1cncc(-c2ccc3cnc(Nc4ccc(S(N)(=O)=O)cc4)nc3c2)c1 [Compound 138, 4-[7-(5-Methoxy-pyridin-3-yl)-quinazolin-2-ylamino]-benzenesulfonamide] | < 5 µM | < 5 µM | 5 to 10 µM |  |
| CC(=O)Nc1ccc(Nc2ncc3ccc(OC4CCNCC4)cc3n2)cc1C [Compound 63, N-{2-Methyl-4-[7-(piperidin-4-yloxy)-quinazolin-2-ylamino]-phenyl}-acetamide] | < 5 µM |  | < 5 µM | < 5 µM |
| NS(=O)(=O)c1ccc(Nc2ncc3ccc(-c4cccnc4)cc3n2)cc1 [Compound 133, 4-(7-Pyridin-3-yl-quinazolin-2-ylamino)-benzenesulfonamide] | < 5 µM | < 5 µM | < 5 µM |  |
| C#Cc1cc(OC2CCN(C(C)C)CC2)c2nc(Nc3ccc(S(N)(=O)=O)cc3)ncc2c1 [Compound 86, 4-[6-Ethynyl-8-(1-isopropyl-piperidin-4-yloxy)-quinazolin-2-ylamino]-benzenesulfonamide] | < 5 µM |  | < 5 µM | < 5 µM |
| CC(C)Cn1cc(-c2ccc3cnc(Nc4ccc(S(N)(=O)=O)cc4)nc3c2OC2CCNCC2)cn1 [Compound 65] | < 5 µM | < 5 µM | 5 to 10 µM |  |
| CC(C)NS(=O)(=O)c1ccc(Nc2ncc3ccc(OC4CCN(C(C)C)CC4)cc3n2)cc1 [Compound 58, N-Isopropyl-4-[7-(1-isopropyl-piperidin-4-yloxy)-quinazolin-2-ylamino]-benzenesulfonamide] | < 5 µM |  | < 5 µM | < 5 µM |
| NS(=O)(=O)c1ccc(Nc2ncc3cccc(O[C@@H]4CCNC4)c3n2)cc1 [Compound 37, 4-[8-((R)-Pyrrolidin-3-yloxy)-quinazolin-2-ylamino]-benzenesulfonamide] | < 5 µM | < 5 µM | 5 to 10 µM |  |
| CNC(=O)Cc1ccc(Nc2ncc3cccc(OC4CCN(C(C)C)CC4)c3n2)cc1 [Compound 70, 2-{4-[8-(1-Isopropyl-piperidin-4-yloxy)-quinazolin-2-ylamino]-phenyl}-N-methyl-acetamide] | < 5 µM |  | 10 to 25 µM | < 5 µM |
| CNC(=O)Cc1cccc(Nc2ncc3cccc(OC4CCN(C(C)C)CC4)c3n2)c1 [Compound 77, 2-{3-[8-(1-Isopropyl-piperidin-4-yloxy)-quinazolin-2-ylamino]-phenyl}-N-methyl-acetamide] | < 5 µM |  | < 5 µM | < 5 µM |
| NS(=O)(=O)c1ccc(Nc2ncc3ccc(-c4cnccn4)c(OC4CCNCC4)c3n2)cc1 [Compound 66, 4-[8-(Piperidin-4-yloxy)-7-pyrazin-2-yl-quinazolin-2-ylamino]-benzenesulfonamide] | < 5 µM | < 5 µM | 5 to 10 µM |  |
| CNC(=O)c1ccc(Nc2ncc3cccc(OC4CCN(C(C)C)CC4)c3n2)cc1 [Compound 43, 4-[8-(1-Isopropyl-piperidin-4-yloxy)-quinazolin-2-ylamino]-N-methyl-benzamide] | < 5 µM | < 5 µM | < 5 µM |  |
| CC(C)NC(=O)Cc1ccc(Nc2ncc3cccc(OC4CCN(C(C)C)CC4)c3n2)cc1 [Compound 71, N-Isopropyl-2-{4-[8-(1-isopropyl-piperidin-4-yloxy)-quinazolin-2-ylamino]-phenyl}-acetamide] | < 5 µM |  | 5 to 10 µM | < 5 µM |
| COc1cc(Nc2ncc3ccc(OC4CCNCC4)cc3n2)cc(OC)c1 [Compound 55, (3,5-Dimethoxy-phenyl)-[7-(piperidin-4-yloxy)-quinazolin-2-yl]-amine] | < 5 µM |  | < 5 µM | < 5 µM |
| CNS(=O)(=O)Cc1ccc(Nc2ncc3ccc(OC4CCN(C(C)C)CC4)cc3n2)cc1 [Compound 61, C-{4-[7-(1-Isopropyl-piperidin-4-yloxy)-quinazolin-2-ylamino]-phenyl}-N-methyl-methanesulfonamide] | < 5 µM |  | < 5 µM | < 5 µM |
| Nc1ncc(-c2ccc3cnc(Nc4ccc(S(N)(=O)=O)cc4)nc3c2OC2CCNCC2)cc1C(F)(F)F [Compound 68, 4-[7-(6-Amino-5-trifluoromethyl-pyridin-3-yl)-8-(piperidin-4-yloxy)-quinazolin-2-ylamino]-benzenesulfonamide] | < 5 µM |  | 5 to 10 µM | < 5 µM |
